Reference: US20250084101A1, “COMPOUND FOR INHIBITING AND DEGRADING IRAK4, AND PHARMACEUTICAL COMPOSITION AND PHARMACEUTICAL APPLICATION THEREOF” (XIZANG HAISCO PHARMACEUTICAL CO., LTD., priority 2022, published 2025)
Structures can show the parent of a compound that is named as a salt. Where two headings read alike, the source gives them in different places.

Columns and labels:
IRAK4 protein = biological target: T1, IRAK4 protein (Homo sapiens, UniProt Q9NWZ3); assay: IRAK4 degradation activity in hPBMC cells (24 hours); type: cell-based; conditions: for Remaining IRAK4 protein IRAK4%: 100 nM, relative to vehicle control
T1 construct: endogenous in cells; host or cells: human peripheral blood mononuclear cells (hPBMC) from healthy volunteers
T1 sequence (Q9NWZ3 1-460): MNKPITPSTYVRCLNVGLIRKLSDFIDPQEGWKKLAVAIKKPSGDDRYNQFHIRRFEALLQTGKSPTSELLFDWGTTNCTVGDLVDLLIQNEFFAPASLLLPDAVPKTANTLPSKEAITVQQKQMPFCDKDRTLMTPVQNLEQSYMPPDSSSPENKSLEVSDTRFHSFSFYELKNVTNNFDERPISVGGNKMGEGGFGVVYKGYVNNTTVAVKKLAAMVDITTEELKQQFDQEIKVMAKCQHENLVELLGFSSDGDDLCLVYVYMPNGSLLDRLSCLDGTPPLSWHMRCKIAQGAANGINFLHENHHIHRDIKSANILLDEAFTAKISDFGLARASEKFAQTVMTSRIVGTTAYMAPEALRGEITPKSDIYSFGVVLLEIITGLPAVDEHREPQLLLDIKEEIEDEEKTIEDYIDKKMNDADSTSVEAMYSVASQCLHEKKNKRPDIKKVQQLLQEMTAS
Procedure: hPBMC cells are human peripheral blood mononuclear cells. Peripheral venous blood was taken from healthy volunteers, and hPBMCs were isolated using Ficoll density gradient centrifugation (Ficoll-Paque™ PLUS 1.077, GE, Cat. 17-1140-02). Culture conditions: RPMI-1640+10% FBS+1% penicillin-streptomycin solution. The cells were cultured in an incubator at 37° C. and 5% CO2. The cells were plated in a 24-well plate at 1×10^6 cells/well. After plating, compounds at different concentrations were added, and the cells were cultured in an incubator at 37° C. and 5% CO2 for 24 hours. After the culture was completed, the cells were collected, and RIPA lysis buffer (beyotime, Cat. P0013B) was added. The cells were lysed on ice for 20 minutes, and then centrifuged at 12000 rpm at 4° C. for 10 minutes. The protein sample of the supernatant was collected, the protein was quantified using a BCA kit (Beyotime, Cat. P0009), and then the protein was diluted to 1 mg/mL. The expression of IRAK4 (CST, Cat. 4363S) and the internal reference cofilin (CST, Cat. 5175S) were detected using a fully automated western blot quantitative analyzer (Proteinsimple). The expression level of IRAK4 relative to the internal reference was calculated using compass software. The remaining IRAK4 protein IRAK4% relative to the vehicle control group at different doses was calculated using formula (1), and the IRAK4 protein degradation relative to the vehicle control group at different doses was calculated using formula (2), where IRAK4administration was the expression level of IRAK4 in the administration groups at different doses, and IRAK4vehicle was the expression level of IRAK4 in the vehicle control group. An IRAK4 degradation-drug concentration curve was fit using Graphpad Prism 8 software, and the DC50 was calculated.

[1] = biological target: T2, hERG potassium ion channel (Homo sapiens, UniProt Q12809); assay: Effect on hERG potassium ion channel (manual patch-clamp, CHO cells); type: cell-based; conditions: CHO cells stably expressing hERG, whole cell patch-clamp
T2 construct: expressed in transfected cells; host or cells: CHO (Chinese hamster ovary) cells stably expressing hERG
Source text: Experimental platform: electrophysiological manual patch-clamp system
Cell line: Chinese hamster ovary (CHO) cell line stably expressing hERG potassium ion channel
Experimental method: In CHO (Chinese Hamster Ovary) cells stably expressing hERG potassium channel, whole cell patch-clamp technique was used to record hERG potassium channel current at room temperature. The glass microelectrode was made of a glass electrode blank (BF150-86-10, Sutter) by a puller. The tip resistance after filling the liquid in the electrode was about 2-5 MQ. The glass microelectrode can be connected to the patch-clamp amplifier by inserting the glass microelectrode into an amplifier probe. The clamping voltage and data recording were controlled and recorded by the pClamp 10 software through a computer. The sampling frequency was 10 kHz, and the filtering frequency was 2 kHz. After the whole cell records were obtained, the cells were clamped at −80 mV, and the step voltage that induced the hERG potassium current (lhERG) was depolarized from −80 mV to +20 mV for 2 s, then repolarized to −50 mV, and returned to −80 mV after 1 s. This voltage stimulation was given every 10 s, and the administration process was started after the hERG potassium current was confirmed to be stable (at least 1 minute). The compound was administered for at least 1 minute at each test concentration, and at least 2 cells (n≥2) were tested at each concentration.
Data processing: Data analysis processing was carried out by using pClamp 10, GraphPad Prism 5 and Excel software. The inhibition degree of hERG potassium current (peak value of hERG tail current induced at −50 mV) at different compound concentrations was calculated by the following formula:
[formula] • where Inhibition % represents the percentage of inhibition of hERG potassium current by the compound, and l and lo represent the amplitude of hERG potassium current after and before the administration, respectively.
Compound IC50 was calculated using GraphPad Prism 5 software by fitting according to the following equation:
[formula] • where X represents the Log value of the tested concentration of the test sample, Y represents the inhibition percentage at the corresponding concentration, and Bottom and Top represent the minimum and maximum inhibition percentage, respectively.

[2] = Pharmacokinetic test in mice; type: in vivo, ICR mice; conditions: plasma, i.g. 10 mg/kg
Procedure: Experimental animals: Male ICR mice, about 25 g, 6 mice/compound, purchased from Chengdu Ddossy Experimental Animals Co., Ltd.
Test design: On the day of the experiment, 6 ICR mice were randomly grouped according to their body weights. The animals were fasted with water available for 12 to 14 h one day before the administration, and were fed 4 h after the administration.
• Vehicle for intravenous administration: 5% DMA+5% Solutol+90% Saline; • Vehicle for intragastric administration: 5% DMSO+30% PEG400+65% (20% SBE-CD); (DMSO: dimethyl sulfoxide; DMA: dimethylacetamide; Solutol: polyethylene glycol-15-hydroxystearate; PEG400: polyethylene glycol 400; SBE-β-CD: sulfobutyl-β-cyclodextrin; Saline: physiological saline)
Before and after the administration, 0.15 mL of blood was taken from the orbit of the animals under isoflurane anesthesia and placed in an EDTAK2 centrifuge tube. The blood was centrifuged at 5000 rpm and 4° C. for 10 min to collect plasma. The blood collection time points for the intravenous administration group and intragastric administration group were 0 min, 5 min, 15 min, 30 min, 1 h, 2 h, 4 h, 7 h and 24 h. Before analysis and detection, all samples were stored at −60° C. The samples were analyzed quantitatively by LC-MS/MS.

[3] = read-out: IC50 for inhibitory effect on hERG potassium channel current
[4] = male, ICR, mouse, po, 10 mg/kg, read-out: AUC0-t

T2 sequence (Q12809 whole entry): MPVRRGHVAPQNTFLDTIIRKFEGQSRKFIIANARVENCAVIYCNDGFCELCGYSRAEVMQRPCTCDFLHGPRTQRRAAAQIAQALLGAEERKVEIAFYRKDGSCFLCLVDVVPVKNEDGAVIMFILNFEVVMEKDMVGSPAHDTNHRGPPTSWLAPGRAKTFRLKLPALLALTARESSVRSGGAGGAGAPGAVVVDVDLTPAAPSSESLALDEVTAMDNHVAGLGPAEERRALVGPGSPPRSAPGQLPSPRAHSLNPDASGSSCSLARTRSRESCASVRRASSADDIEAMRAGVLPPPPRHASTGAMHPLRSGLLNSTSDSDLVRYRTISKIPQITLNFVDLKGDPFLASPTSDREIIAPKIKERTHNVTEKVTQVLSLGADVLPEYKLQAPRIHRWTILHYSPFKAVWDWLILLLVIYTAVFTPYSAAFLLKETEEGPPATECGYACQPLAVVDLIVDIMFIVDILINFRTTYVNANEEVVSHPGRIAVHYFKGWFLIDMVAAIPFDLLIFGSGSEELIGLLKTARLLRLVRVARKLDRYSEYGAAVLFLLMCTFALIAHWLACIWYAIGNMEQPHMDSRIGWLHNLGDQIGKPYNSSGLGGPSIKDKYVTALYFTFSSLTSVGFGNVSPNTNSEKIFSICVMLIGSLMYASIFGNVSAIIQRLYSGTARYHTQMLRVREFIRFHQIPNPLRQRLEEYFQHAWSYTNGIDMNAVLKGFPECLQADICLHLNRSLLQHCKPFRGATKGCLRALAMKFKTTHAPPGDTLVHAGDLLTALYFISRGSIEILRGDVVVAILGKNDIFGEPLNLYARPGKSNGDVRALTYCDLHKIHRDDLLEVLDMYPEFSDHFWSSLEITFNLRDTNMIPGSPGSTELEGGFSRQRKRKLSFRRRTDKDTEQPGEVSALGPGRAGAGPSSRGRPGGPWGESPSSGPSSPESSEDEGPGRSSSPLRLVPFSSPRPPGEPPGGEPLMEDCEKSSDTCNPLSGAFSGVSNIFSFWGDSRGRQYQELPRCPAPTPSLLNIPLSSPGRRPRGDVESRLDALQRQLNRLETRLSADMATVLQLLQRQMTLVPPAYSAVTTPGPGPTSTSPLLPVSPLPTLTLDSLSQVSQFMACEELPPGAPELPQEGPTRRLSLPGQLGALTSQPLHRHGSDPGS

SMILES	Remaining IRAK4 protein IRAK4% (IRAK4 protein)	IC50 [1, 3] [µM]	DC50 (IRAK4 protein) [µM]	also measured
Cn1nc(C2CCC(=O)NC2=O)c2cccc(C#CCO[C@H]3CCN(C[C@H]4CC[C@H](n5cc(NC(=O)c6cnn7ccc(N8C[C@H]9C[C@@H]8CO9)nc67)c(C(F)F)n5)CC4)C[C@@H]3F)c21 (stereo partly shown) [Compound 12]	B (10% < B ≤ 50%)	> 30		
Cn1nc(C2CCC(=O)NC2=O)c2cccc(C#CCO[C@H]3CCN(C[C@H]4CC[C@H](n5cc(NC(=O)c6cnn7ccc(N8CCO[C@H](CO)C8)nc67)c(C(F)F)n5)CC4)C[C@H]3F)c21 (single isomer, unassigned) [Chiral isomer 2 of compound 25]		> 40	< 0.02	
Cn1nc(C2CCC(=O)NC2=O)c2cccc(C#CCO[C@@H]3CCN(C[C@H]4CC[C@H](n5cc(NC(=O)c6cnn7ccc(N8C[C@H]9C[C@@H]8CO9)nc67)c(C(F)F)n5)CC4)C[C@H]3F)c21 (stereo partly shown) [Compound 13]	B (10% < B ≤ 50%)			
Cn1nc(C2CCC(=O)NC2=O)c2cccc(C#CCO[C@@H]3CCN(C[C@H]4CC[C@H](n5cc(NC(=O)c6cnn7ccc(N8CCO[C@@H](CO)C8)nc67)c(C(F)F)n5)CC4)C[C@@H]3F)c21 (single isomer, unassigned) [Chiral isomer 1 of compound 19]		> 20	< 0.02	AUC(0-t) [2]: 13407 ± 4034 ng·h/mL
CN(C[C@H]1CC[C@H](n2cc(NC(=O)c3cnn4ccc(N5C[C@H]6C[C@@H]5CO6)nc34)c(C(F)F)n2)CC1)C1CCN(Cc2cccc3c(C4CCC(=O)NC4=O)nn(C)c23)CC1 (stereo partly shown) [Compound 1]	B (10% < B ≤ 50%)			
Cn1nc(C2CCC(=O)NC2=O)c2cccc(C#CCO[C@@H]3CCN(C[C@H]4CC[C@H](n5cc(NC(=O)c6cnn7ccc(N8CCO[C@@H](CO)C8)nc67)c(C(F)F)n5)CC4)C[C@@H]3F)c21 (single isomer, unassigned) [Chiral isomer 2 of compound 19]			< 0.02	
Cn1c(=O)n(C2CCC(=O)NC2=O)c2cccc(C#CCOC3CCN(C[C@H]4CC[C@H](n5cc(NC(=O)c6cnn7ccc(N8C[C@H]9C[C@@H]8CO9)nc67)c(C(F)F)n5)CC4)CC3)c21 (stereo partly shown) [Control compound 1, reference compound]				AUC(0-t) [2, 4]: 2320 ± 146 ng·h/mL; IC50 ([1]; IC50 for inhibitory effect on hERG potassium channel current): 0.642 µM
COC[C@H]1CN(c2ccn3ncc(C(=O)Nc4cn([C@H]5CC[C@H](CN6CC[C@H](OCC#Cc7cccc8c(C9CCC(=O)NC9=O)nn(C)c78)[C@H](F)C6)CC5)nc4C(F)F)c3n2)CCO1 (single isomer, unassigned) [Chiral isomer 2 of compound 23]		> 40	< 0.02	
CC(C)n1nc(C2CCC(=O)NC2=O)c2cccc(C#CCOC3CCN(C[C@H]4CC[C@H](n5cc(NC(=O)c6cnn7ccc(N8C[C@H]9C[C@@H]8CO9)nc67)c(C(F)F)n5)CC4)CC3)c21 (single isomer, unassigned) [Chiral isomer 1 of compound 8]	B (10% < B ≤ 50%)			
Cn1nc(C2CCC(=O)NC2=O)c2cccc(C#CCO[C@@H]3CCN(C[C@H]4CC[C@H](n5cc(NC(=O)c6cnn7ccc(N8CCO[C@@H](CO)C8)nc67)c(C(F)F)n5)CC4)C[C@@H]3F)c21 (single isomer, unassigned) [Trifluoroacetate salt of chiral isomer 2 of compound 19]		> 40		AUC(0-t) [2, 4]: 8300 ± 2850 ng·h/mL
Cn1nc(C2CCC(=O)NC2=O)c2cccc(C#CCO[C@H]3CCN(C[C@H]4CC[C@H](n5cc(NC(=O)c6cnn7ccc(N8CCO[C@H](CO)C8)nc67)c(C(F)F)n5)CC4)C[C@H]3F)c21 (single isomer, unassigned) [Chiral isomer 1 of compound 25]		> 40	< 0.02	
CCn1nc(C2CCC(=O)NC2=O)c2cccc(C#CCOC3CCN(C[C@H]4CC[C@H](n5cc(NC(=O)c6cnn7ccc(N8C[C@H]9C[C@@H]8CO9)nc67)c(C(F)F)n5)CC4)CC3)c21 (stereo partly shown) [Compound 6]	A (A ≤ 10%)			
[2H]C([2H])([2H])n1nc(C2CCC(=O)NC2=O)c2cccc(C#CCOC3CCN(C[C@H]4CC[C@H](n5cc(NC(=O)c6cnn7ccc(N8C[C@H]9C[C@@H]8CO9)nc67)c(C(F)F)n5)CC4)CC3)c21 (relative stereo) [Compound 7, Trans-5-((1R,4R)-2-oxa-5-azabicyclo[2.2.1]heptan-5-yl)-N-(3-(difluoromethyl)-1-(4-((4-((3-(3-(2,6-dioxopiperidin-3-yl)-1-(methyl-d3)-1H-indazol-7-yl)prop-2-yn-1-yl)oxy)piperidin-1-yl)methyl)cyclohexyl)-1H-pyrazol-4-yl) pyrazolo[1,5-a]pyrimidine-3-carboxamide]	A (A ≤ 10%)			
Cn1nc(C2CCC(=O)NC2=O)c2cccc(C#CCO[C@H]3CCN(C[C@H]4CC[C@H](n5cc(NC(=O)c6cnn7ccc(N8C[C@H]9C[C@@H]8CO9)nc67)c(C(F)F)n5)CC4)C[C@H]3F)c21 (stereo partly shown) [Compound 11]	A (A ≤ 10%)	> 30		AUC(0-t) [2, 4]: 8750 ± 4650 ng·h/mL
O=C1CCC(c2nn(C3CC3)c3c(C#CCOC4CCN(C[C@H]5CC[C@H](n6cc(NC(=O)c7cnn8ccc(N9C[C@H]%10C[C@@H]9CO%10)nc78)c(C(F)F)n6)CC5)CC4)cccc23)C(=O)N1 (stereo partly shown) [Compound 16]	A (A ≤ 10%)			
Cn1nc(C2CCC(=O)NC2=O)c2cccc(C#CCO[C@H]3CCN(C[C@H]4CC[C@H](n5cc(NC(=O)c6cnn7ccc(N8CCO[C@@H](CO)C8)nc67)c(C(F)F)n5)CC4)C[C@H]3F)c21 (single isomer, unassigned) [Chiral isomer 1 of compound 24]		> 40	< 0.02	
Cn1nc(C2CCC(=O)NC2=O)c2cccc(C#CCOC3CCN(C[C@H]4CC[C@H](n5cc(NC(=O)c6cnn7cc(F)c(N8C[C@H]9C[C@@H]8CO9)nc67)c(C(F)F)n5)CC4)CC3)c21 (stereo partly shown) [Trifluoroacetate salt of compound 15]	B (10% < B ≤ 50%)			
